Values quoted from earlier work as cited in patent US20200352901A1, “TETRAHYDROCANNABINOL MODULATORS” (priority 2017, published 2020).
Like-named read-outs stand apart in the source and are kept apart here.

Key:
CB1 [1] = target: T1, CB1 (Homo sapiens, UniProt P21554); settings: read-out: Binding affinity to CB1
Target sequence in this assay (P21554 whole entry): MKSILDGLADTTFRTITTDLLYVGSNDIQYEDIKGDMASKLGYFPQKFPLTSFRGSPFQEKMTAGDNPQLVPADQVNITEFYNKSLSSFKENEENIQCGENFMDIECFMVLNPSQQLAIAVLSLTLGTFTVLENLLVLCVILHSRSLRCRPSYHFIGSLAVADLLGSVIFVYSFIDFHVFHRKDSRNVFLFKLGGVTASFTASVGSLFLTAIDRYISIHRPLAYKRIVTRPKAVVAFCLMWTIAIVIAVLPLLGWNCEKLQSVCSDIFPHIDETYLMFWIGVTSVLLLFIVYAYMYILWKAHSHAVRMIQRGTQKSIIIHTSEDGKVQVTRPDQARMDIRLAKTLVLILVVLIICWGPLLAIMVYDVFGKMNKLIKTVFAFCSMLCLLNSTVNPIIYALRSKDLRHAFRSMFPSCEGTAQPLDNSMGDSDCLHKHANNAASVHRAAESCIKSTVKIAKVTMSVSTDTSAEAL

human CB2 receptor [2] = target: T2, human CB2 receptor (Homo sapiens, UniProt P34972); settings: cells expressing human CB2 receptor; radioligand binding; read-out: Binding affinity to CB2
T2 sequence (P34972 whole entry): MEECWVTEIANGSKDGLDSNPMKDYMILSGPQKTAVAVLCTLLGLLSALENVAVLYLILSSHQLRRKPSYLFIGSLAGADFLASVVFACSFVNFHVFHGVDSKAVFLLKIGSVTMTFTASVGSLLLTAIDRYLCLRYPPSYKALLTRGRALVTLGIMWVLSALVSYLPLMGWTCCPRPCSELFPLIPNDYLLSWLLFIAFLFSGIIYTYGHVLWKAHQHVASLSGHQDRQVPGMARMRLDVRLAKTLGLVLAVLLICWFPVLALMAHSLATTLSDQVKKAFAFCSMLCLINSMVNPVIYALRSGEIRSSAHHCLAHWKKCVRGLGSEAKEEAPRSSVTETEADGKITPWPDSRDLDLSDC

CB1 [3] = target: T1, CB1
Target sequence in this assay (P21554 whole entry): as the sequence (P21554 whole entry) above

human CB2 receptor [4] = target: T2, human CB2 receptor
UGT1A9 = target: T3, UGT1A9 (Homo sapiens, UniProt O60656); settings: at 200 micromolar carvacrol; test substrate 4-methylumbelliferone
T3 sequence (O60656 26-530): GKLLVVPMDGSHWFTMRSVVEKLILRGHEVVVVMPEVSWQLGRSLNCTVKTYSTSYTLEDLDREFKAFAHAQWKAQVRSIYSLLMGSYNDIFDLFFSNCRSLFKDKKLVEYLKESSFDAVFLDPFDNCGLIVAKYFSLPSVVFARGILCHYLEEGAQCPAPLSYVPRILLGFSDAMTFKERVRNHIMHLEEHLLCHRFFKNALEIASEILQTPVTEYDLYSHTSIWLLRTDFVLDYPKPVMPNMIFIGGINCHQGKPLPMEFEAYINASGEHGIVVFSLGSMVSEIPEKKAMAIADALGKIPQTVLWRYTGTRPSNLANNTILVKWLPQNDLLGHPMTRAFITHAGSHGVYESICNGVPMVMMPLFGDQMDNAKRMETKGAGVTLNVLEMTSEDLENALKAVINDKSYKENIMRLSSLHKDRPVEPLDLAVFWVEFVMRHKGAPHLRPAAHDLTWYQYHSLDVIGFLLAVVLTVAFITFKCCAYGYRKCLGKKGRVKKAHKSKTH

CB1 [5] = target: T1, CB1; remark: listed apart in the source
Target sequence in this assay (P21554 whole entry, species assumed): as the sequence (P21554 whole entry) above

UGT1A10 = target: T4, UGT1A10 (Homo sapiens, UniProt Q9HAW8); settings: extrahepatic isoform UGT1A10
T4 sequence (Q9HAW8 26-530): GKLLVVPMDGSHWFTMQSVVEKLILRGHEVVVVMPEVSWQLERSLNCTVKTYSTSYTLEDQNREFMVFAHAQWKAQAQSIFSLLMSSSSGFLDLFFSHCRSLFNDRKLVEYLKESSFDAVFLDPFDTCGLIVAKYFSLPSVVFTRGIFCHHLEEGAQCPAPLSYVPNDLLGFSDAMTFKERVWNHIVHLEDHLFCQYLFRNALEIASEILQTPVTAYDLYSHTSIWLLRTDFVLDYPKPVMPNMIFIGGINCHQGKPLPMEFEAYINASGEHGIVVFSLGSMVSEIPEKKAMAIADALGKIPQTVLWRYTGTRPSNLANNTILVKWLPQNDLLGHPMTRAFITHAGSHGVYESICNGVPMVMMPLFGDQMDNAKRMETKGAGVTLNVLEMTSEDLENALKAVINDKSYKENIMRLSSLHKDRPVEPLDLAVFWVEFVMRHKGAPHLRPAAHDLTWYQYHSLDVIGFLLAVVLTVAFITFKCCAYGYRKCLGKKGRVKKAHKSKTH

CYP3A4 [6] = target: T5, CYP3A4 (Homo sapiens, UniProt P08684); settings: read-out: IC(50) for CYP3A4 inhibition
T5 sequence (P08684 whole entry): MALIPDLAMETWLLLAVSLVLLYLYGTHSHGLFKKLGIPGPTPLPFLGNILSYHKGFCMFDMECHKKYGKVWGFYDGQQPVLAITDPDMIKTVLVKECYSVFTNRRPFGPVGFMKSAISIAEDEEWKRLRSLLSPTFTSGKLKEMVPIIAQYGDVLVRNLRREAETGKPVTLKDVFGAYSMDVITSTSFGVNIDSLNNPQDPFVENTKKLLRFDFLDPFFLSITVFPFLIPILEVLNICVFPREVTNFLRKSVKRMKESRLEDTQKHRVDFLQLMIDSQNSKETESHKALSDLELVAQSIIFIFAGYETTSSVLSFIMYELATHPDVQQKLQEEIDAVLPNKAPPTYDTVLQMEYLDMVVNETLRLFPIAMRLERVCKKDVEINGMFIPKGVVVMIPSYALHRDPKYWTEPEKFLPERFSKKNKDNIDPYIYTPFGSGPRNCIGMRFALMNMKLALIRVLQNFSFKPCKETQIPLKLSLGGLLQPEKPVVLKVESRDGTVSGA

CYP2C9 [7] = target: T6, CYP2C9 (Homo sapiens, UniProt P11712); settings: read-out: IC(50) for CYP2C9 inhibition
T6 sequence (P11712 whole entry): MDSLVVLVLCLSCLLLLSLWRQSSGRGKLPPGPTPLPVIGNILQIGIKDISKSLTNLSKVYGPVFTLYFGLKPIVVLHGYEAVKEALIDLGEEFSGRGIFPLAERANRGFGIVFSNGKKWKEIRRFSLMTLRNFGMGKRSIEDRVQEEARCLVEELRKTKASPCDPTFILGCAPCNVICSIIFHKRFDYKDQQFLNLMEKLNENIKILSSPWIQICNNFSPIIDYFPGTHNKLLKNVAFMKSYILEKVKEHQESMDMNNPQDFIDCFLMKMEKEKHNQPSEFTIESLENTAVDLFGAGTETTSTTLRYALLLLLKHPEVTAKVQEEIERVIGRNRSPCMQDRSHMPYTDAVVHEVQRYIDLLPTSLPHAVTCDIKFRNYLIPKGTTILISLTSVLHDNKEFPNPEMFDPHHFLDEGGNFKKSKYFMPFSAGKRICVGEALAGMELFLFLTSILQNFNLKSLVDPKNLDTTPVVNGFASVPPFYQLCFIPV

CYP1A2 = target: T7, CYP1A2 (Homo sapiens, UniProt P05177); settings: read-out: IC(50) for CYP1A2 inhibition
T7 sequence (P05177 1-516): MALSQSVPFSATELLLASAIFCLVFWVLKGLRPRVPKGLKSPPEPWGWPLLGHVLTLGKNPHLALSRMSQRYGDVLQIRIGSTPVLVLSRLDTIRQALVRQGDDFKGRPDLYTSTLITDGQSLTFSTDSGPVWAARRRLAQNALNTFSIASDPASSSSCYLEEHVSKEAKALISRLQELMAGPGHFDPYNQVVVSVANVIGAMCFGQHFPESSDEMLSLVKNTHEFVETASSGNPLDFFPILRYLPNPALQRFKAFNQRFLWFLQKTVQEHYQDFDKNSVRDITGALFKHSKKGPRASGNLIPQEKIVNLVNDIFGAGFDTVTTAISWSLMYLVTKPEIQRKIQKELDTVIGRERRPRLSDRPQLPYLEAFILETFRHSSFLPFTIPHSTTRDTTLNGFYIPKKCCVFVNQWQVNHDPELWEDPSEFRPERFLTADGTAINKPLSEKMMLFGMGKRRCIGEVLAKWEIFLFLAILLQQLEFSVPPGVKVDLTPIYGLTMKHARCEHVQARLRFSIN

CYP2D6 = CYP2D6 (Homo sapiens, UniProt P10635); settings: standard substrate of CYP2D6
Chain of CYP2D6 (P10635 whole entry): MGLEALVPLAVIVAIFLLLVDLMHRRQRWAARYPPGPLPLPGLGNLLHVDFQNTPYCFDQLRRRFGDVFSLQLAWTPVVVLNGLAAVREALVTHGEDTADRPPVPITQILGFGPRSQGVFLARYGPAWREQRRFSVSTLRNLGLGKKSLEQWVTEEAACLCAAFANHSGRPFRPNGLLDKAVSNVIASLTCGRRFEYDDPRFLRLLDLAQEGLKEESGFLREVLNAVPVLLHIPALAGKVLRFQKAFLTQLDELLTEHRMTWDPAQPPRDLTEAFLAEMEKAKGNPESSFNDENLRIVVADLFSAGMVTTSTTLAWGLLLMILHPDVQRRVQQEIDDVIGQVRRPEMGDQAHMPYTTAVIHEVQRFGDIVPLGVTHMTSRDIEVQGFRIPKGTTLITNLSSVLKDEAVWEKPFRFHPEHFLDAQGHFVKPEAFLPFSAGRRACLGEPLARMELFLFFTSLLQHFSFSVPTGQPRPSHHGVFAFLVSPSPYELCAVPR

CYP2C9 [8] = target: T6, CYP2C9; settings: standard substrate of CYP2C9
CYP2C8 = target: T8, CYP2C8 (Homo sapiens, UniProt P10632); settings: standard substrate of CYP2C8
T8 sequence (P10632 1-490): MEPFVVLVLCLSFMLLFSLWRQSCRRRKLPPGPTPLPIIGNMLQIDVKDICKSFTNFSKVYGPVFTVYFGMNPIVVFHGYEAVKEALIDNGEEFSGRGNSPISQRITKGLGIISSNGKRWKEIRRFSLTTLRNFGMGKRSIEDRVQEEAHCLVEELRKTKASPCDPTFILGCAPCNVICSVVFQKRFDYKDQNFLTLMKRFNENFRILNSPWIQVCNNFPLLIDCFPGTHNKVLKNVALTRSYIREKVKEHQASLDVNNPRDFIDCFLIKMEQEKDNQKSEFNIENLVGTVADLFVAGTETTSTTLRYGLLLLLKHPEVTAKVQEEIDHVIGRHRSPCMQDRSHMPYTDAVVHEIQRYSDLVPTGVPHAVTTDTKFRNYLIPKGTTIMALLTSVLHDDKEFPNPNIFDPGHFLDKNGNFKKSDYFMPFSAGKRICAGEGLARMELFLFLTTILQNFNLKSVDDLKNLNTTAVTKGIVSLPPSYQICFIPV

CYP2B6 = CYP2B6 (Homo sapiens, UniProt P20813); settings: standard substrate of CYP2B6
Chain of CYP2B6 (P20813 whole entry): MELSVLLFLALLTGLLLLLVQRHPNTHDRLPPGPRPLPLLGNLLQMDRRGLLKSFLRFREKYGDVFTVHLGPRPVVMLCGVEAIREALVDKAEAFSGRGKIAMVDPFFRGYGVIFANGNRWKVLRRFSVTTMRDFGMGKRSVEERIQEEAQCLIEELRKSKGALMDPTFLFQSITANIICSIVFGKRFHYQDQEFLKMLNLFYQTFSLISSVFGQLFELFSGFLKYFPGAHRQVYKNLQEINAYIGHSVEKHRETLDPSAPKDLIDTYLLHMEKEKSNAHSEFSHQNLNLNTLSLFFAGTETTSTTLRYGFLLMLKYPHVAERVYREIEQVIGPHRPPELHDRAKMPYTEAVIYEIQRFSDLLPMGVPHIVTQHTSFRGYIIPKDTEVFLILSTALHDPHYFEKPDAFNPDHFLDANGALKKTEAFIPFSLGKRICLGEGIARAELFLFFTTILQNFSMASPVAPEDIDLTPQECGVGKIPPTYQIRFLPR

CYP2A6 = CYP2A6 (Homo sapiens, UniProt P11509); settings: standard substrate of CYP2A6
Chain of CYP2A6 (P11509 whole entry): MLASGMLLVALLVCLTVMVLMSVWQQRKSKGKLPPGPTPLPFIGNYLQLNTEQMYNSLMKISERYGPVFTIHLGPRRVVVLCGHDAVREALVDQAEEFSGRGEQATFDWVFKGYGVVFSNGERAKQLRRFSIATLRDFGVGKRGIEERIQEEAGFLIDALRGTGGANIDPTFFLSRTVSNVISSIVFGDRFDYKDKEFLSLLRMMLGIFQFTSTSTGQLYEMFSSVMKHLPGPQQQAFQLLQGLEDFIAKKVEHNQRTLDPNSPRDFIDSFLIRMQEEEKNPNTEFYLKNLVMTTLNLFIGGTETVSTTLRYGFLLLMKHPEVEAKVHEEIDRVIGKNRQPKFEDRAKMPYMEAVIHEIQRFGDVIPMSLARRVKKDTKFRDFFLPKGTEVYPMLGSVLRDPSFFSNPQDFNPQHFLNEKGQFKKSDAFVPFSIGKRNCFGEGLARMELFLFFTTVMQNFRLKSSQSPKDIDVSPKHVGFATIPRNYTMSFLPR

CYP3A4 [9] = target: T5, CYP3A4; settings: standard substrate of CYP3A4

CCCCCc1cc(O)c2c(c1)OC(C)(C)C1CC=C(C)C(O)C21 (stereo not drawn) [Compound 3, 10-alpha-hydroxy-delta-8-THC]
Ki (CB1 [1]): 31 nM | Ki (human CB2 receptor [2]): 30 nM | Functional character at CB1 (CB1 [3]): partial agonist | Functional character at CB2 (human CB2 receptor [4]): partial agonist

Cc1ccc(C(C)C)cc1O [carvacrol]
4-methylumbelliferone glucuronidation activity remaining (UGT1A9): 20 % maximal activity

CCCCCc1cc(O)c2c(c1)OC(C)(C)[C@@H]1CCC(CO)=C[C@@H]21 [Compound 11-OH-THC, 11-hydroxy-delta-9-tetrahydrocannabinol]
Functional character at CB1 (CB1 [5]): agonists | Km (UGT1A10): 16 µM

COc1cc(/C=C/C(O)=C/C(=O)/C=C/c2ccc(O)cc2)ccc1O [Compound 12, demethoxycurcumin]
IC50 (CYP3A4 [6]): 7000 ± 1700 nM | IC50 (CYP2C9 [7]): 1400 ± 200 nM | IC50 (CYP1A2): 34000 ± 14200 nM

C=C1CCC2C(c3c(O)cc(CCCCC)cc3OC2(C)C)C1O (single isomer, unassigned) [Compound 4, 10-beta-hydroxy-delta-9,11-hexahydro-cannabinol]
Ki (CB1 [1]): 830 nM | Ki (human CB2 receptor [2]): 3270 nM

COc1ccc2c(c1)[C@]13CCCC[C@@H]1[C@H](C2)N(C)CC3 [dextromorphone]
Km (CYP2D6): 5 µM

CCCCCc1cc(O)c2c(c1)OC(C)(C)C1CC(O)C(C)=CC21 (single isomer, unassigned) [Compound 2, 8-beta-hydroxy-delta-9-THC]
Ki (CB1 [1]): 65 nM | Ki (human CB2 receptor [2]): 88 nM

O=C(O)Cc1ccccc1Nc1c(Cl)cccc1Cl [diclofenac]
Km (CYP2C9 [8]): 3.5 µM

CCN(CC)Cc1cc(Nc2ccnc3cc(Cl)ccc23)ccc1O [amodiaquine]
Km (CYP2C8): 0.9 µM

CCCCCc1cc(O)c2c(c1)OC(C)(C)c1ccc(C)cc1-2 [CBN, cannabinol]
Km (UGT1A10): 55 µM

C=C1CCC2C(c3c(O)cc(CCCCC)cc3OC2(C)C)C1O (single isomer, unassigned) [Compound 5, 10-alpha-hydroxy-delta-9,11-hexahydro-cannabinol]
Ki (CB1 [1]): 117 nM | Ki (human CB2 receptor [2]): 129 nM

CC(NC(C)(C)C)C(=O)c1cccc(Cl)c1 (stereo not shown) [bupropion]
Km (CYP2B6): 137 µM

CCCCCc1cc(O)c2c(c1)OC(C)(C)[C@@H]1CC=C(CO)C[C@@H]21 [11-hydroxy-delta-8-THC]
Functional character at CB1 (CB1 [5]): agonists

O=c1ccc2ccccc2o1 [coumarin]
Km (CYP2A6): 1 µM

COc1cc(/C=C/C(=O)CC(=O)/C=C/c2ccc(O)c(OC)c2)ccc1O [Compound 11, curcumin]
IC50 (CYP1A2): > 100000 nM

CCCCCc1cc(O)c2c(c1)OC(C)(C)C1CC(O)C(C)=CC21 (single isomer, unassigned) [Compound 1, 8-alpha-hydroxy-delta-9-THC]
Ki (CB1 [1]): 1910 nM | Ki (human CB2 receptor [2]): 3220 nM

CC(C)=C1C[C@@H]2O[C@@]2(C)CC/C=C(\C)CC1=O [Compound 7, (4S,5S)-(−)-germacrone-4,5-epoxide]
IC50 (CYP3A4 [6]): 1000 ± 200 nM | IC50 (CYP2C9 [7]): 7600 ± 2500 nM | IC50 (CYP1A2): 33200 ± 3600 nM

Cc1ncc2n1-c1ccc(Cl)cc1C(c1ccccc1F)=NC2 [midazolam]
Km (CYP3A4 [9]): 1.8 µM

C[C@]12CC[C@H]3[C@@H](CCC4=CC(=O)CC[C@@]43C)[C@@H]1CC[C@@H]2O [testosterone]
Km (CYP3A4 [9]): 64 µM
